The experiment addresses T1, VvD14c (Vitis vinifera, UniProt A0ACM8QNI4).
T1 construct: gene VIT_18s0001g09140; pET-28b, His-tag, E. coli Rosetta (DE3); VvD14c encodes 267 amino acids
The experiment is described as follows: surface plasmon resonance (Biacore 8K, CM5 chip, LMW multi-cycle kinetics/affinity). Type of experiment: binding. Background: SPR reads the build-up and loss of mass on a sensor chip optically.

T1 sequence (A0ACM8QNI4 entry or part of it): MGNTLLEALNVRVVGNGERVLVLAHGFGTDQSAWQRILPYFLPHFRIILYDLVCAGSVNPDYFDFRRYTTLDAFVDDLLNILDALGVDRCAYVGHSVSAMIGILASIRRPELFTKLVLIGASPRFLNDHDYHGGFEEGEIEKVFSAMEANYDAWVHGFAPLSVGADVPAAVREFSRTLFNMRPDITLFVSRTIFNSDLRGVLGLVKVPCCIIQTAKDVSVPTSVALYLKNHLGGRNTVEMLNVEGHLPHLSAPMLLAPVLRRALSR

One may read the Kd as the free concentration of one partner at which half of the binding sites on the other are occupied at equilibrium, for simple one-to-one binding. A low value points to higher affinity. As for `CC1=C[C@@H](O/C=C2/C(=O)O[C@@H]3c4ccccc4C[C@H]23)OC1=O` [GR24], binding was characterised by a dissociation constant (Kd) of 5.65 nM.

(Values after PMC11515387, “VvD14c-VvMAX2-VvLOB/VvLBD19 module is involved in the strigolactone-mediated regulation of grapevine root architecture” (Molecular Horticulture, 2024).)
